This note sets out measurements from PubChem BioAssay AID687005 (Broad Institute, 2013).

Molecules are shown by their SMILES. Records with an inconclusive call do not appear. The source made the active and inactive calls.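 How the source made its calls: active means Compounds that reduce signal, with fitted half-maximal dose at or under twice the top valid tested dose; inconclusive means Poor fit, or flat curve losing 30 to 70% of signal; inactive means Potency past limit, flat within 30%, or opposite direction.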

One assay is described as follows: HEK293T cell cytotoxicity, dose response, cytotoxicity control, ATP luminescence, cherry-pick samples (AID 687005). Conditions: HEK293T viability, ATP luminescence (CellTiter-Glo), 48 h; at 21 µM (top of the series).
In the case of `C[C@@H]1CN([C@H](C)CO)C(=O)Cc2cc(NC(=O)CCCCCC(=O)Nc3ccccc3N)ccc2O[C@H]1CN(C)Cc1ccc2c(c1)OCO2`, the activity change, negative = cytotoxicity was -2.18% (inactive).

Still in this assay, the particulars now being: HEK293T viability, ATP luminescence (CellTiter-Glo), 48 h; at 23.5 µM (top of the series).
`Cc1cc(C(=O)Nc2cccc3c2O[C@@H](CN(C)S(=O)(=O)c2ccccc2)[C@@H](C)CN([C@@H](C)CO)C3=O)n(C)n1`: the activity change, negative = cytotoxicity was -20.3% (inactive).

`O=C(C[C@@H]1C[C@@H]2c3cc(NC(=O)Nc4ccc(F)cc4)ccc3O[C@@H]2[C@@H](CO)O1)NCC1CC1`: the activity change, negative = cytotoxicity was 26.7% (inactive). As to `C[C@@H]1CN([C@H](C)CO)C(=O)Cc2cc(NC(=O)Nc3cccc4ccccc34)ccc2O[C@@H]1CN(C)Cc1ccc(C(=O)O)cc1`, the activity change, negative = cytotoxicity was -26.3% (inactive). For `COC(=O)C1=C(C)N(Cc2ccc(Cl)cc2)C(=S)NC1c1ccc(Br)cc1` (configuration not stated), the activity change, negative = cytotoxicity is -20.4% (inactive). Same read-out and setting: for `CC(C)NC(=O)N1CC[C@@H]2[C@@H](CO)N(C)c3ccc(-c4cccc(F)c4)cc3[C@@H]21` the value was 40.1% (inactive).

Staying with this assay, now noted: HEK293T viability, ATP luminescence (CellTiter-Glo), 48 h; at 26 µM (top of the series).
Take `C[C@H](CO)N1C[C@H](C)[C@@H](CN(C)Cc2ccncc2)OCCCC[C@H](C)Oc2ccc(NC(=O)NC3CCCCC3)cc2C1=O`: the activity change, negative = cytotoxicity is -0.008% (inactive). On the same count and under the same terms, for `CC(C)NC(=O)N[C@H]1CC[C@@H](CCNC(=O)C2CC2)O[C@H]1CO` the value was 6.21% (inactive); for `C[C@H](O)C#Cc1ccc2c(c1)O[C@H](CN(C)Cc1ccncc1)[C@H](C)CN([C@H](C)CO)S2(=O)=O`, 29.2% (inactive). The same measure, in the same setting: for `C[C@@H]1CN([C@@H](C)CO)C(=O)Cc2cc(NC(=O)Nc3cccc4ccccc34)ccc2O[C@@H]1CN(C)Cc1ccc(C(=O)O)cc1` the value was 30.4% (inactive); for `C[C@@H]1CN([C@@H](C)CO)C(=O)CCCn2nncc2CO[C@H]1CN(C)Cc1cccc(C(F)(F)F)c1`, -26.6% (inactive); for `C[C@H](CO)N1C[C@H](C)[C@H](CN(C)C(=O)c2ccccn2)Oc2ncc(-c3ccccc3)cc2C1=O`, -0.807% (inactive). The same measure, in the same setting: the same measure for `COc1cc(CO)cc(I)c1O[C@H]1C=C(C(=O)NCCO)C[C@@H](N(CC2CCCCC2)C(=O)c2cc3ccccc3oc2=O)[C@@H]1O`: 29.4% (inactive).

For the molecule `COC(=O)N(C)C[C@H]1OCc2cn(nn2)CCCC(=O)N([C@H](C)CO)C[C@@H]1C`, the activity change, negative = cytotoxicity was -11% (inactive). The same measure, in the same setting: the same measure for `CC(C)NC(=O)Nc1ccc2c(c1)C(=O)N([C@@H](C)CO)C[C@H](C)[C@@H](CN(C)Cc1ccc3c(c1)OCO3)OCCCC[C@@H](C)O2`: -28.1% (inactive); for `O=C(NCCc1ccccc1)[C@H]1[C@H](CO)[C@H]2Cn3c(cccc3=O)[C@@H]1N2C(=O)C1CCC1`: 7.71% (inactive).

In the case of `O=C(NC1CCCCC1)N[C@@H]1CC[C@@H](CCNS(=O)(=O)c2ccc(Cl)cc2)O[C@H]1CO`, the activity change, negative = cytotoxicity is 45.5% (inactive). For `O=C(CN1CCOCC1)N1CC[C@@H]2[C@@H](CO)Nc3ccc(-c4ccccc4F)cc3[C@@H]21`, the activity change, negative = cytotoxicity is 29% (inactive). On the same count and under the same terms, the same measure for `CNC[C@@H]1OCCCC[C@H](C)Oc2ccc(NC(=O)NC(C)C)cc2C(=O)N([C@H](C)CO)C[C@H]1C`: 14.1% (inactive).

With `CC(NC(=O)COc1ccc([N+](=O)[O-])cc1)c1ccccc1` (configuration not stated), the activity change, negative = cytotoxicity was 18.2% (inactive). The same measure, in the same setting: for `CC(C)NC(=O)N(C)C[C@H]1OCCCC[C@@H](C)Oc2ccc(NC(=O)c3ccccc3)cc2C(=O)N([C@@H](C)CO)C[C@@H]1C` the value was -10.9% (inactive); for `COc1ccc(S(=O)(=O)Nc2ccc3c(c2)C(=O)N([C@H](C)CO)C[C@H](C)[C@H](CN(C)C(=O)Nc2ccccc2)O3)cc1`, -2.82% (inactive); for `CO[C@H]1CN(C)C(=O)c2cc(NC(=O)c3ccccc3F)ccc2OC[C@H](C)N(C(C)=O)C[C@H]1C`, -16.7% (inactive).

As to `CNC(=O)CN(c1ccc(OC)cc1)S(=O)(=O)c1ccc(F)cc1`, the activity change, negative = cytotoxicity was 31.6% (inactive). The same measure, in the same setting: the same measure for `COc1cccc(NC(=O)N2C[C@H](O)COC[C@H]3O[C@@H](CC(=O)NCc4ccccc4F)CC[C@@H]32)c1`: -23.2% (inactive); for `CO[C@H]1CC[C@H]2CCOc3c(C#N)cccc3C(=O)N(C)C[C@@H](C)C(=O)N(C)C[C@H]1O2`: -16.5% (inactive); for `C[C@@H]1CN([C@@H](C)CO)C(=O)c2cc(NS(=O)(=O)c3cn(C)cn3)ccc2O[C@@H](C)CCCCO[C@H]1CN(C)C`: -1.98% (inactive).

As to `NC(=O)NCC#Cc1ccc2c(c1)[C@]1(C(=O)N2)[C@H](C(N)=O)[C@H]2C(=O)O[C@H](c3ccccc3)[C@H](c3ccccc3)N2[C@@H]1c1ccccc1OCCO`, the activity change, negative = cytotoxicity is -5.26% (inactive). On the same count and under the same terms, for `O=C([C@@H]1[C@@H](CO)[C@@H]2Cn3c(cccc3=O)[C@H]1N2Cc1cccc(Cl)c1)N1CCOCC1` the value was -9.53% (inactive). The same measure, in the same setting: the same measure for `CN1C(=O)c2cc(NS(=O)(=O)c3cccc(F)c3)ccc2OC[C@@H]2O[C@@H](CC(=O)O)CC[C@H]21`: -21.4% (inactive); for `COc1ccc(NC(=O)N(C)C[C@H]2OCCCC[C@@H](C)Oc3ccc(N(C)C)cc3C(=O)N([C@H](C)CO)C[C@H]2C)cc1`: -1% (inactive).

With `CCCNC(C)C(=O)Nc1ccccc1C` (configuration not stated), the activity change, negative = cytotoxicity was -25.6% (inactive). Same read-out and setting: the same measure for `CCCNC(=O)C[C@@H]1CC[C@H]2[C@@H](COC[C@H](O)CN2Cc2ccccc2F)O1`: 22.6% (inactive); for `Cc1cc(C(=O)Nc2cccc3c2O[C@H](CN(C)S(=O)(=O)c2ccccc2)[C@H](C)CN([C@H](C)CO)C3=O)n(C)n1`: 16.8% (inactive). Still for that read-out and setting: the same measure for `C[C@H]1CN([C@@H](C)CO)C(=O)Cc2cc(NC(=O)Nc3cccc4ccccc34)ccc2O[C@H]1CN(C)S(=O)(=O)c1cccs1`: -25.9% (inactive); for `C[C@@H]1CN([C@H](C)CO)C(=O)c2cc(NS(=O)(=O)c3ccc(Cl)cc3)ccc2O[C@H]1CN(C)S(=O)(=O)c1ccc(F)cc1`: 38.8% (inactive); for `C[C@@H]1CN([C@@H](C)CO)C(=O)c2cc(NC(=O)C3CCCCC3)ccc2O[C@@H](C)CCCCO[C@@H]1CN(C)C(=O)NC1CCCCC1`: 8.91% (inactive). On the same count and under the same terms, for `COCC#Cc1cnc2c(c1)C(=O)N([C@H](C)CO)C[C@@H](C)[C@@H](CN(C)C(=O)Nc1ccc(OC)cc1)O2` the value was -11.3% (inactive); for `Cc1ccc(S(=O)(=O)N[C@@H]2CC[C@H](CCNC(=O)C3CCCC3)O[C@@H]2CO)cc1`, -17.8% (inactive). For `CCC(C)(C(=O)Nc1ccccc1C)N(C(=O)CNC(C)=O)c1ccc(C)cc1` (configuration not stated), the activity change, negative = cytotoxicity is -11.7% (inactive).

The assay is the same for the next values; noted with them: HEK293T viability, ATP luminescence (CellTiter-Glo), 48 h; at 28.5 µM (top of the series).
Regarding `Cc1ccc(N(CC(N)=O)S(=O)(=O)c2ccc(F)cc2)cc1`, the activity change, negative = cytotoxicity was -28% (inactive).

Staying with this assay, now noted: HEK293T viability, ATP luminescence (CellTiter-Glo), 48 h; at 42 µM (top of the series).
On to `CCC(=O)N1CCCC1(C)C(=O)Nc1ccc(C)c(C)c1` (configuration not stated), for which the activity change, negative = cytotoxicity was -1.9% (inactive).
